Experimental data published in ChEMBL document CHEMBL1201862, “PubChem BioAssay data set” (2004).
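Test compounds were applied to cells in 96-well plates for 48 hours at 5 doses. At the GI50, growth is halved.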 Activity calls are given as the source filed them. No stated cut-off is given here; in the data, active = GI50 up to about 1.1 µM and inactive = higher.

Key:
Experiment in all cases: DTP human tumour cell line panel, 48 h
786-0 = tested on: 786-0
LXFL 529 = tested on: LXFL 529
SK-OV-3 = tested on: SK-OV-3
SNB-75 = tested on: SNB-75
A549 = tested on: A549
SK-MEL-28 = tested on: SK-MEL-28
NCI-H522 = tested on: NCI-H522
A498 = tested on: A498
TK-10 = tested on: TK-10
KM12 = tested on: KM12
HL-60 = tested on: HL-60
UO-31 = tested on: UO-31
HOP-92 = tested on: HOP-92
EKVX = tested on: EKVX
SW-620 = tested on: SW-620
SF-539 = tested on: SF-539
M14 = tested on: M14
Hs-578T = tested on: Hs-578T
RXF 393 = tested on: RXF 393
MDA-MB-435 = tested on: MDA-MB-435

Measured: GI50

COc1cc(C2(C)SCCCS2)cc(OC)c1OC
inactive: 786-0 > 100 µM | LXFL 529 > 100 µM | SK-OV-3 > 100 µM | SNB-75 > 100 µM | A549 > 100 µM | SK-MEL-28 > 100 µM | NCI-H522 > 100 µM | A498 > 100 µM | TK-10 > 100 µM | KM12 > 100 µM | HL-60 > 100 µM | UO-31 > 100 µM | HOP-92 > 100 µM | EKVX > 100 µM | SW-620 > 100 µM | SF-539 > 100 µM | M14 > 100 µM

COc1cc2ccnc3c2c(c1OC)CC1CC(O)C(OC)CC31 (stereo not given)
inactive: 786-0 33.5 µM | LXFL 529 36.6 µM | SK-OV-3 > 100 µM | SNB-75 > 100 µM | A549 61.8 µM | SK-MEL-28 22.7 µM | NCI-H522 60.1 µM | TK-10 53.8 µM | KM12 40.9 µM | HL-60 28.6 µM | UO-31 20.9 µM | HOP-92 14.7 µM | EKVX 22.8 µM | SW-620 33.7 µM | SF-539 24.4 µM | M14 51.8 µM

Cc1ccc(C)c2c1NC(=O)/C2=N\Nc1ccccc1[N+](=O)[O-]
inactive: 786-0 61.5 µM | SK-OV-3 > 100 µM | SNB-75 > 100 µM | A549 > 100 µM | SK-MEL-28 > 100 µM | NCI-H522 > 100 µM | A498 > 100 µM | TK-10 > 100 µM | KM12 > 100 µM | Hs-578T 35.7 µM | HL-60 > 100 µM | UO-31 > 100 µM | HOP-92 40.7 µM | EKVX > 100 µM | SW-620 > 100 µM | SF-539 98.2 µM | M14 > 100 µM | RXF 393 > 100 µM | MDA-MB-435 > 100 µM

COC(=O)C1=CO[C@@H](OC2OC(CO)C(O)C(O)C2O)[C@@H]2[C@H](C)[C@@H](O)[C@@H](O)[C@]12O (stereo not given in full)
inactive: 786-0 > 100 µM | SK-OV-3 > 100 µM | SNB-75 33 µM | A549 > 100 µM | SK-MEL-28 > 100 µM | NCI-H522 > 100 µM | A498 > 100 µM | TK-10 > 100 µM | KM12 > 100 µM | Hs-578T > 100 µM | HL-60 > 100 µM | UO-31 > 100 µM | HOP-92 > 100 µM | EKVX > 100 µM | SW-620 > 100 µM | SF-539 > 100 µM | M14 > 100 µM | RXF 393 > 100 µM | MDA-MB-435 > 100 µM

CC(=O)c1[nH]c(Nc2ccc(C)cc2)c(C(=S)Nc2ccccc2)c1N
inactive: 786-0 17.7 µM | SK-OV-3 34.3 µM | SNB-75 19.9 µM | A549 14.9 µM | SK-MEL-28 19.5 µM | NCI-H522 15.6 µM | A498 13.8 µM | TK-10 17.3 µM | KM12 15.9 µM | Hs-578T 20 µM | HL-60 15.8 µM | UO-31 13.2 µM | HOP-92 13 µM | EKVX 24.3 µM | SW-620 28.4 µM | SF-539 29.2 µM | M14 17.1 µM | RXF 393 13.3 µM | MDA-MB-435 15 µM

COc1cc(CNc2ccc3nc4n(c(=O)c3c2)CCCCC4)cc(OC)c1OC
inactive: 786-0 > 100 µM | SK-OV-3 > 100 µM | SNB-75 48.9 µM | A549 51.1 µM | SK-MEL-28 43.4 µM | NCI-H522 39.9 µM | A498 50.6 µM | TK-10 84.7 µM | KM12 58.6 µM | Hs-578T 51.9 µM | HL-60 > 100 µM | UO-31 35.4 µM | HOP-92 76 µM | EKVX 36.6 µM | SW-620 > 100 µM | SF-539 > 100 µM | M14 94.4 µM | RXF 393 58.6 µM | MDA-MB-435 31.7 µM

O=C1c2ccccc2C(=O)c2c(NC3CCCCC3)ccc(Nc3ccc(S(=O)(=O)O)cc3)c21
inactive: 786-0 45.7 µM | SK-OV-3 > 100 µM | SNB-75 > 100 µM | A549 33.9 µM | SK-MEL-28 > 100 µM | NCI-H522 20.6 µM | A498 > 100 µM | TK-10 > 100 µM | KM12 30.9 µM | Hs-578T > 100 µM | HL-60 31.6 µM | UO-31 59 µM | HOP-92 > 100 µM | EKVX 17 µM | SW-620 35.2 µM | SF-539 32.2 µM | M14 35.1 µM | RXF 393 83.6 µM | MDA-MB-435 39.1 µM

CCOP(=O)(OCC)/C(C#N)=C\c1cccc2ccccc12
inactive: 786-0 > 71.4 µM | SK-OV-3 45.5 µM | SNB-75 22.4 µM | A549 > 100 µM | SK-MEL-28 28.2 µM | NCI-H522 > 88.1 µM | A498 44.5 µM | TK-10 > 100 µM | KM12 > 74.8 µM | Hs-578T 20.2 µM | HL-60 23 µM | UO-31 56.9 µM | HOP-92 23 µM | EKVX 31.9 µM | SW-620 68.5 µM | SF-539 > 56 µM | M14 80 µM | RXF 393 31.6 µM | MDA-MB-435 34.7 µM

CNC(=O)NCNC(=O)NC
inactive: 786-0 > 100 µM | LXFL 529 > 100 µM | SK-OV-3 > 100 µM | SNB-75 > 100 µM | A549 > 100 µM | SK-MEL-28 > 100 µM | A498 > 100 µM | TK-10 > 100 µM | KM12 > 100 µM | HL-60 > 100 µM | HOP-92 > 100 µM | EKVX > 100 µM | SW-620 > 100 µM | SF-539 > 100 µM | M14 > 100 µM

COc1ccc(/N=N/C(=O)NC(CC(C)C)C(N)=O)cc1 (stereo not given)
inactive: 786-0 > 31.6 µM | SK-OV-3 > 100 µM | SNB-75 > 100 µM | A549 9.14 µM | SK-MEL-28 > 69 µM | NCI-H522 > 100 µM | A498 > 31.6 µM | TK-10 > 31.6 µM | KM12 5.27 µM | Hs-578T > 100 µM | HL-60 > 100 µM | UO-31 5.41 µM | HOP-92 > 31.6 µM | EKVX > 100 µM | SW-620 > 29.2 µM | SF-539 22.9 µM | M14 > 28.9 µM | RXF 393 > 31.6 µM | MDA-MB-435 28.2 µM

CCCNc1ncnc2[nH]ncc12
inactive: 786-0 > 100 µM | SK-OV-3 > 100 µM | SNB-75 > 100 µM | A549 > 100 µM | SK-MEL-28 > 100 µM | NCI-H522 > 100 µM | A498 > 100 µM | TK-10 > 100 µM | KM12 > 100 µM | Hs-578T > 100 µM | HL-60 > 100 µM | UO-31 > 100 µM | HOP-92 87.5 µM | EKVX > 100 µM | SW-620 > 100 µM | SF-539 > 100 µM | M14 > 100 µM | RXF 393 > 100 µM | MDA-MB-435 > 100 µM
